{"source": "patent US6492325B1", "about": "“Use of α1β1 integrin receptor inhibitors and TGF-β1 inhibitors in the treatment of kidney disease” (Boys Town National Research Hospital, priority 1998, dated 2002)", "key": {"129 Sv/J Alport mouse [1]": {"tested_on": "129 Sv/J Alport mouse", "test": "TGF-β1 inhibitors in 129 Sv/J Alport mouse, transmission electron microscopy of GBM ultrastructure", "type": "in vivo", "conditions": "7 week old Alport mice, treated twice weekly from 3 weeks of age", "procedure": "(§1) A. Transmission Electron Microscopy: Fresh external renal cortex was minced in 4% paraformaldehyde, allowed to fix for 2 hours, and stored at 5° C. in PBS (pH 7.4). The tissue was washed extensively (5 times for 10 minutes each at 4° C.) with 0.1M Sorenson's buffer (Sorenson's buffer was made by combining 100 ml of 200 mM monobasic sodium phosphate and 400 ml of 200 mM dibasic sodium phosphate with 500 ml of water, and adjusted to pH 7.4), and postfixed in 1% osmium tetroxide in Sorenson's buffer for 1 hour. The tissue was then dehydrated in graded ethanol (70%, then 80%, then 90%, then 100% for ten minutes each), and finally in propylene oxide and embedded in Poly/Bed 812 epoxy resin (Polysciences, Inc., Warrington, Pa.) following the procedures described by the manufacturer. In short, 42 ml of polybed 812 was mixed with 26 ml of dodecylsuccinic anhydride (DDSA, Polysciences, Inc.) and 24 ml of nadic methyl anhydride (Polysciences Inc.). One and a half mls of 2,4,6 tri(dimethly aminomethyl) phenol was added as a catalyst, and the activated resin frozen in 10 ml aliquots until needed for embedding specimen. Glomeruli were identified in 1 μm (micron) sections stained with toluidine blue, and thin sections were cut at 70 nm (nanometer) thickness using a Reichert Jung Ultracut E ultramicrotome (Cambridge Instrument Co, Vienna, Austria). […]"}, "129 Sv/J Alport mouse [2]": {"tested_on": "129 Sv/J Alport mouse", "test": "TGF-β1 inhibitors in 129 Sv/J Alport mouse, scanning electron microscopy of glomeruli", "type": "in vivo", "conditions": "7 week old Alport mice, treated twice weekly from 3 weeks of age", "text": "B. Scanning Electron Microscopy: Small pieces (approximately 2 mm cubes) of kidney cortex were fixed in 3% phosphate buffered glutaraldehyde, then postfixed in 1% phosphate buffered osmium tetroxide. Samples were then dehydrated in graded ethanols, and critical point dried in carbon dioxide. The cubes were then cracked in pieces by stressing them with the edge of a razor blade, and mounted with glue onto stubs with the cracked surface facing upward. The surface was sputter coated with gold/palladium using well known procedures and visualized with a scanning electron microscope.\n(§2) The experimental protocol was to inject with either FK506 (2 μg/g body weight, injected intraperitoneally, Fujisawa Pharmaceutical Co., Ltd., Osaka, Japan), or a soluble TGF-B1 receptor (25 μg/injection, intravenously through the tail vein, Biogen Inc., Cambridge, Mass.) twice weekly starting at 3 weeks of age. Kidneys were harvested at 7 weeks of age and subjected to the described analyses.\nSome of the kidney specimen was processed for scanning electron microscopy. Glomeruli were exposed by freeze fracture of renal cortex, which removes the Bowman's capsule, exposing the outer layer of podocytes as they cover the capillary loops of the glomerulus. […]"}, "[3]": {"tested_on": "double knockout (DKO) mice", "test": "TGF-β1 inhibitors in double knockout mice, transmission electron microscopy of GBM ultrastructure", "type": "in vivo, mouse", "conditions": "treated twice weekly from 4 weeks, kidneys taken at 10 weeks", "procedure": "as §1, with “Inc.).” for “Inc.). One and a half mls of 2,4,6 tri(dimethly aminomethyl) phenol was added as a catalyst, and the activated resin frozen in 10 ml aliquots until needed for embedding specimen. Glomeruli were identified in 1 μm (micron) sections stained with toluidine blue, and thin sections were cut at 70 nm (nanometer) thickness using a Reichert Jung Ultracut E ultramicrotome (Cambridge Instrument Co, Vienna, Austria).”\n(§3) Mice (DKO mice are null for both the collagen α3(IV) and integrin α1 genes) were injected with TGF-β1 inhibitors FK506 (2 μg/gram body weight, twice weekly, intraperitoneal injections) or Biogen's TGF-β1 soluble receptor (25 μg per injection, twice weekly, intravenous injections) starting at four weeks of age. The kidneys were taken at 10 weeks of age and analyzed. […]"}, "[4]": {"tested_on": "double knockout (DKO) mice", "test": "TGF-β1 inhibitors in double knockout mice, urinary albumin (proteinuria) by gel electrophoresis", "type": "in vivo, mouse", "procedure": "Urine samples were collected at weekly intervals and 0.5 μl fractionated by electrophoresis through 10% denaturing acrylamide gels. The protein in the gels was stained with coomassie blue and photographed. Bovine serum albumin was used as a molecular weight standard.\nMice (DKO mice are null for both the collagen α3(IV) and integrin α1 genes) were injected with TGF-β1 inhibitors FK506 (2 μg/gram body weight, twice weekly, intraperitoneal injections) or Biogen's TGF-β1 soluble receptor (25 μg per injection, twice weekly, intravenous injections) starting at four weeks of age. The kidneys were taken at 10 weeks of age and analyzed. The 10 week time point was chosen since, in the double knockouts, the disease typically progresses to the point where significant irregular thickening of the GBM is observed, and the animals are beginning to progress towards end stage renal failure. Thus, if the TGF-β1 inhibitors are to provide additional protective benefits, those benefits should be evident at this stage in GBM disease progression. […] A typical example of these differences is illustrated in FIG. 14. […]\nProteinuria was examined in these same mice collected weekly during the course of treatment. Samples (equivalent to approximately one half of one microliter) were analyzed by electrophoresis on polyacrylamide gels. […]"}, "129 Sv/J Alport mouse [5]": {"tested_on": "129 Sv/J Alport mouse", "test": "Dual immunofluorescence staining for laminin α2 chain in glomeruli of treated Alport mice", "type": "in vivo", "conditions": "7 week old 129 Sv/J Alport mouse", "procedure": "as §2\nIn dual fluorescence analysis, fresh renal cortex was embedded in Tissue Tek aqueous embedding compound, snap frozen, and cut at 4 microns on a cryostat. Slides were postfixed in cold (−20° C.) 100% acetone for 10 minutes, and then air dried overnight. Tissue was rehydrated by three washes in PBS for 10 minutes each. The primary antibodies were diluted together in 7% non-fat dry milk (BioRad). An anti-entactin antibody (Chemicon Inc.) was used as a known marker for glomerular basement membrane at a dilution of 1:200. The laminin α2 chain-specific antibody was a gift from Dr. Peter Yurchenco (Robert Wood Johnson Medical School, Piscataway, N.J.). The specificity of this antibody for the laminin α2 chain was illustrated in Cheng et al., J. Biol. Chem., 272:31525-31532, 1997. The antibody was used at a concentration of 1:10. Primary antibodies were allowed to react overnight at 4° C. in a humidified dish. […]"}, "double knockout mice [6]": {"tested_on": "double knockout mice", "test": "Northern blot of kidney RNAs (matrix molecules, Timp) in double knockout mice treated with TGF-β1 inhibitors", "type": "in vivo, mouse", "conditions": "10 week old double knockout mice; untreated show nine-fold reduction relative to control", "procedure": "A. Northern Blot Analysis: Kidneys were removed and snap frozen in liquid nitrogen and ground to a powder in liquid nitrogen using a mortar and pestle. The powder was solubilized in TRIZOL reagent (GibCo/BRL, Grand Island, N.Y.) using 5 ml of reagent per kidney. Total cellular RNA was extracted according to the manufacturer's instructions. Twenty micrograms (20 μg) of RNA was fractionated on a 1.0% agarose/formaldehyde/MOPS (3-(N-morpholino)propanesulfonic acid) gel by electrophoresis at 80V for 4 hours. Gels were soaked in water for 45 minutes, and transferred to Hybond N (uncharged nylon, New England Nuclear, Inc., Boston, Mass.) by capillary blot overnight using 750 mM ammonium acetate (in water) as a transfer buffer. The RNA was UV crosslinked to the blot using a Stratalinker (Stratagene, Inc., LaJolla, Calif.). […] The quality of the RNA preparations and the consistency of loading was assessed by staining gels with ethidium bromide and scanning the 18S and 28S ribosomal RNA bands using a Gel Imager 2000 digital imaging system instrument and software package (Applied Imaging, Santa Clara, Calif.). […] Quantitative densitometric scanning confirmed no more than a 10% variance in sample loading. […] Quantitative differences in expression were assessed by phosphorimage analysis using a BioRad GS-525 phosphorimager (Bio Rad, Inc., Hercules, Calif.), and subtracted for background hybridization. […]"}, "double knockout mice [7]": {"tested_on": "double knockout mice", "test": "Immunoperoxidase staining for collagen type I and fibronectin in tubulointerstitium of double knockout mice", "type": "in vivo, mouse", "conditions": "10 week old double knockout mice", "text": "E. Immunoperoxidase Detection: The immunoperoxidase detection method was used in immunostaining for TGF-β1 in glomeruli as well as fibronectin and collagen type I in tubunointerstitium. The collagen type I antibody is rabbit anti-mouse, and was purchased from Biogenesis, Inc. (Sandown, N.H.). The antisera was used at a 1:100 dilution for immunoperoxidase staining. The fibronectin antibody used was the same as for immunfluorescence staining (a rabbit anti-human fibronectin antisera from Sigma Chemical Company, St. Louis, Mo.), and was used at a 1:100 dilution. […]\nas §3\nThe role of TGF-β1 in upregulation of matrix proteins and in renal fibrosis has been well established (Yang et al., J. Am. Soc. Nephrol., 5:1610-1617, 1995; Border and Ruoslahti, J. Clin. Invest., 90:1-7, 1992). […] Animals injected with TGF-β1 inhibitors were analyzed using three markers for interstitial fibrosis and compared directly with 10 week old double knockout animals that were not treated with inhibitors. […]"}}}
{"compound": "C=CC[C@@H]1/C=C(\\C)C[C@H](C)C[C@H](OC)[C@H]2O[C@@](O)(C(=O)C(=O)N3CCCC[C@H]3C(=O)O[C@H](/C(C)=C/[C@@H]3CC[C@@H](O)[C@H](OC)C3)[C@H](C)[C@@H](O)CC1=O)[C@H](C)C[C@@H]2OC", "note": "[FK506, tacrolimus]", "values": [{"measurement": "GBM thickening (transmission electron microscopy)", "setting": "129 Sv/J Alport mouse [1]", "result": "obvious lack of basement membrane thickening"}, {"measurement": "Podocyte foot process architecture (transmission electron microscopy)", "setting": "129 Sv/J Alport mouse [1]", "result": "significant degree of swelling in the foot processes"}, {"measurement": "Surface of the glomerulus / podocyte foot processes (scanning electron microscopy)", "setting": "129 Sv/J Alport mouse [2]", "result": "looks much the same as that in the untreated Alport mouse"}, {"measurement": "Focal GBM thickening and foot process effacement (transmission electron microscopy)", "setting": "[3]", "result": "marked reduction of both focal GBM thickening and foot process effacement"}, {"measurement": "Performance of the glomerular filter (urinary albumin)", "setting": "[4]; double knockout mice, relative to untreated double knockout mice, urine collected weekly", "result": "markedly improved"}, {"measurement": "Urinary protein bands related to nephrotoxic effects", "setting": "[4]; normal and DKO mice treated with FK506", "result": "diffuse group of bands evident at every timepoint"}, {"measurement": "Accumulation of laminin α2 in the GBM", "setting": "129 Sv/J Alport mouse [5]", "result": "does not prevent the accumulation of laminin α2"}, {"measurement": "Timp-3 mRNA expression in kidney", "setting": "double knockout mice [6]", "result": "reduction in Timp-3 expression is not observed"}, {"measurement": "Collagen type I accumulation in interstitium of renal cortex", "setting": "double knockout mice [7]", "result": "relative absence of collagen type I accumulation"}]}
